ChEMBL document CHEMBL1201862, “PubChem BioAssay data set” (2004)
Active and inactive are the calls of the source.

What was measured:
[1] = target: FAD-linked sulfhydryl oxidase ALR (Homo sapiens, UniProt P55789); test: inhibitors of human ALR sulfhydryl oxidase, dose response, biochemical, H2O2 detection, luminescence, cherry-pick (AID 493248)
[2] = inhibitors of firefly luciferase expression or activity, dose response, H4 neuroglioma cells, luminescence (AID 1990); format: functional, cell-based
[3] = inhibitors of SNCA 5'UTR-driven reporter translation, confirmation, H4 neuroglioma cells, luminescence (AID 1988); format: functional, cell-based
[4] = Luminescence Cell-Based Dose Response HTS to Identify Inhibitors of 5'UTR Stem-Loop Driven Prion Protein mRNA Translation in H4 Neuroglioblastoma Cells. [Related pubchem assays: 1827 (Project Summary), 1813 (Primary HTS)]; format: functional
H9c2 = test: cells; format: functional, cell-based; settings: Rattus norvegicus, H9c2, Myocardium;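 also: confirmatory concentration-response retest of ultra-high-throughput screening hits for modulation of myocardial damage; cell death induced by hydrogen peroxide oxidative stress; compound pretreatment for 60 min then peroxide exposure for 2 h; potency is for protecting the cells against peroxide damage rather than for killing them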
[5] = Luminescence Cell-Based Dose Retest to Confirm Inhibitors of Cancer Stem Cells. [Related pubchem assays (depositor defined):AID2717, AID2721]; format: functional; settings: Homo sapiens
INS1 = test: beta cell apoptosis inhibitors, cytokine rescue, dose response, luminescence, retest (AID 449756); format: functional, cell-based; settings: Rattus norvegicus;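 also: cell death triggered by IL-1 beta plus TNF-alpha plus IFN-gamma mixture; protective hits raise ATP signal compared with cytokine alone wells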
Cytochrome P450 2D6 = Cytochrome P450 2D6 (Homo sapiens, UniProt P10635);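 also: CYP2D6 member of a cytochrome P450 panel assay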
Sequence of Cytochrome P450 2D6 (P10635 whole entry): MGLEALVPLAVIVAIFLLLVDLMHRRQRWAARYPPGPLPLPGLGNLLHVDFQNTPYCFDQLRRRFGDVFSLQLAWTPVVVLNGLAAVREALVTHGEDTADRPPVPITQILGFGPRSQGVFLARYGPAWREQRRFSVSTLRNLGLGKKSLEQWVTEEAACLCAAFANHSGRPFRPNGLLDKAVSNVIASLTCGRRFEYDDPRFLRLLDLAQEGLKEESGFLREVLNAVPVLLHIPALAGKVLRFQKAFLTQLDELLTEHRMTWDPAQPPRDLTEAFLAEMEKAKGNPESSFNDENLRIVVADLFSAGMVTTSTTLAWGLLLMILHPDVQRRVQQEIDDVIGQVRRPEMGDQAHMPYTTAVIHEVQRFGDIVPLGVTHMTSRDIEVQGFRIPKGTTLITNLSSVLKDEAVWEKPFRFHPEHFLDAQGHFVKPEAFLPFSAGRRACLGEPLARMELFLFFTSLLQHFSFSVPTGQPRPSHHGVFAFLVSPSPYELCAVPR

Cytochrome P450 2C19 = Cytochrome P450 2C19 (Homo sapiens, UniProt P33261); test: Cytochrome panel assay with activity outcomes. Panel member name: p450-cyp2c19 Compounds with AC50 equal or less than 10 uM are considered active; format: functional; settings: read-out: AC50
Sequence of Cytochrome P450 2C19 (P33261 whole entry): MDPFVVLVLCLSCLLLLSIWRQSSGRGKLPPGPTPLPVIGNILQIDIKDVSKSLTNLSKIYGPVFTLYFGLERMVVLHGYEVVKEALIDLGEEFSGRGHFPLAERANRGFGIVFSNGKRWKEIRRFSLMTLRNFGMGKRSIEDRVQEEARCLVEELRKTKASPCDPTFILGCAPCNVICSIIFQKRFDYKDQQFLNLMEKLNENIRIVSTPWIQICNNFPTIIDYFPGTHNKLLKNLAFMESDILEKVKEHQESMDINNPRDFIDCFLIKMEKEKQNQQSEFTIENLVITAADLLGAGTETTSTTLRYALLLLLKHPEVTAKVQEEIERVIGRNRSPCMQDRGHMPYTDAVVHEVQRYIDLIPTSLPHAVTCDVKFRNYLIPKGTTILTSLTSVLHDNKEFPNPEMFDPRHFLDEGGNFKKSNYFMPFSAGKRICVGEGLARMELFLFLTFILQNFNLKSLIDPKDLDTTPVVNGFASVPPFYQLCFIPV

Cytochrome P450 1A2 = target: T1, Cytochrome P450 1A2 (Homo sapiens, UniProt P05177);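 also: PubChem cytochrome P450 panel assay, CYP1A2 panel member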
T1 sequence (P05177 whole entry): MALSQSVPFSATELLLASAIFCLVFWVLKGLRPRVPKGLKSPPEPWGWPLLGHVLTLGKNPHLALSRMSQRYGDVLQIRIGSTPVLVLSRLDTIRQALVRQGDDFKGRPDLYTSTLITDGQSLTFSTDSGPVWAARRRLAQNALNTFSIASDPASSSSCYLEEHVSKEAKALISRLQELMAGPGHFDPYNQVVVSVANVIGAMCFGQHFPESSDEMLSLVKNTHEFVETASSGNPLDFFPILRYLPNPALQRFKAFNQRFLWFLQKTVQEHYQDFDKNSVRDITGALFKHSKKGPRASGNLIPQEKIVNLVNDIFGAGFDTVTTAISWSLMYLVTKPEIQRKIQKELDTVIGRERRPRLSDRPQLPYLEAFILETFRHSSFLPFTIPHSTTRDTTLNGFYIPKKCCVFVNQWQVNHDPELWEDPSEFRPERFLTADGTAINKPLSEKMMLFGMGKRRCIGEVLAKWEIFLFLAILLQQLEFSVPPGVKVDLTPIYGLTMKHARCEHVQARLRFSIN

Sequence of FAD-linked sulfhydryl oxidase ALR (P55789 whole entry): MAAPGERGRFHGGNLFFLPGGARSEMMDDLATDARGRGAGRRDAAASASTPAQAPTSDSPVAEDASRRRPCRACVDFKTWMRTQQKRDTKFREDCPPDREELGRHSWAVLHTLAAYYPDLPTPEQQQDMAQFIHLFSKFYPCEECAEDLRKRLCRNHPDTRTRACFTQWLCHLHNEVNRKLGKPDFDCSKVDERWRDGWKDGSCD

Compound: Cn1c(-c2ccc3nc(N)sc3c2)nc2cc(N)ccc21
- AC50 [1]: 0.384 µM (active)

Compound: CCC(C)(C)n1nnnc1CN(Cc1cccs1)Cc1cc2cc(OC)ccc2nc1O
- EC50 [2]: 30.6 µM (active)
- EC50 [3]: > 120 µM (not active)
- EC50 [4]: > 120 µM (not active)

Compound: O=C(NCC(c1cccnc1)N1CCN(c2ccccc2)CC1)C1CCCCC1 (stereo not given)
- AC50 [1]: 19.4 µM (active)

Compound: Cc1ccccc1N(C(=O)c1snc(C(N)=O)c1N)C(C(=O)NCc1ccccc1)c1ccc(O)cc1 (stereo not given)
- IC50 (H9c2): > 79 µM (inactive)

Compound: O=C(c1ccc(Cl)cc1)c1c[nH]c(C(=O)NNc2ccccc2)c1
- AC50 [5]: 1.34 µM (active)

Compound: Cc1ccccc1CN(C)CC(=O)Nc1cccc(S(=O)(=O)N(C)c2ccccc2)c1
- EC50 [2]: > 120 µM (not active)
- EC50 [3]: > 120 µM (not active)
- EC50 [4]: > 120 µM (not active)

Compound: COc1ccc(CCNC(=O)c2cc3c(=O)n4cccc(C)c4nc3n(Cc3ccco3)c2=N)cc1OC
- AC50 (INS1): 8.24 µM (active)

Compound: CCN(CC)c1ccc(CN2CCCCCC2)cc1
- AC50 [1]: 3.84 µM (active)

Compound: Cc1csc2ncnc(N3CCN(C(S)=Nc4ccc(C(F)(F)F)cc4)CC3)c12
- EC50 [2]: > 120 µM (not active)
- EC50 [3]: > 120 µM (not active)
- EC50 [4]: > 120 µM (not active)

Compound: CCN(CCCNC(=O)C1CCC(=O)N1Cc1ccc(C)cc1)c1cccc(C)c1 (stereo not given)
- AC50 [1]: 0.677 µM (active)

Compound: CC(C)(C)c1ccc(NC(=O)N2CCCN(c3c(Cl)cncc3Cl)CC2)cc1
- AC50 [5]: 0.601 µM (active)

Compound: CC(C)CC(C(=O)NC1CCCCC1)N(Cc1cccs1)C(=O)c1snc(C(N)=O)c1N (stereo not given)
- IC50 (H9c2): > 79 µM (inactive)

Compound: Fc1ccc(-c2cc(-c3nnc4n3CCCCC4)c3ccccc3n2)cc1
- AC50 (INS1): 11.2 µM (active)

Compound: CCN(c1ccc(NC(=O)COC(=O)c2ccc([N+](=O)[O-])o2)cc1)C(C)C
- IC50 (H9c2): > 79 µM (inactive)

Compound: CCCCC(=O)NNC(=O)N1c2ccccc2Sc2ccccc21
- AC50 [1]: 0.919 µM (active)

Compound: COc1ccccc1C(=O)NC(=O)COC(=O)Cn1[nH]c(=O)c2ccccc2c1=O
- IC50 (H9c2): > 79 µM (inactive)

Compound: Nc1nc(OCC2CCCCC2)c2nc[nH]c2n1
- EC50 [2]: 16.5 µM (active)
- EC50 [3]: 13.7 µM (active)
- EC50 [4]: 15.8 µM (active)

Compound: O=C1C2C3C=CC(C3)C2C(=O)N1/N=C/c1cn(Cc2ccccc2)c2ccccc12 (stereo not given)
- EC50 [2]: 11 µM (active)
- AC50 (Cytochrome P450 2D6): 39.8 µM (inconclusive)
- EC50 [3]: 2.2 µM (active)
- EC50 [4]: 12.5 µM (active)
- AC50 (Cytochrome P450 2C19): 8.91 µM (inconclusive)

Compound: Cc1ccc(/N=C2\C=C(O)C(=O)c3ccccc32)c(C)c1
- AC50 (INS1): 2.06 µM (active)

Compound: CCN(CC)c1ccc(/C=N/NC(=O)c2cccc(N3CCCC3=O)c2)cc1
- AC50 [1]: 2.14 µM (active)

Compound: CC(/C=N\NC(=O)Cn1c(C)nc2ccccc21)=C\c1ccccc1
- AC50 (Cytochrome P450 2C19): 0.562 µM (inconclusive)
- AC50 (Cytochrome P450 1A2): 8.91 µM (inconclusive)

Compound: COc1cc(/C=N/NC(=O)C2C3CCCCC32C)cc(Br)c1O (stereo not given)
- AC50 [1]: 0.272 µM (active)
